Experimental data from article PMC4215638, “J-147 a Novel Hydrazide Lead Compound to Treat Neurodegeneration: CeeTox™ Safety and Genotoxicity Analysis” (Journal of neurology & neurophysiology, 2013).

Assay: Microsomal metabolic stability
Format: in vitro ADME
Conditions: 30 minutes at 37°C, rat microsomes
Protocol: Metabolic stability was conducted using pooled microsomes from non-induced male Sprague-Dawley rats. J-147 was incubated for 30 minutes at 37°C at concentrations of 1 μM. Subsequent HPLC analysis using a Waters Alliance 2795 in combination with a Waters Quattro Premier mass spectrometer measured disappearance of the parent molecule. The compounds were run on a Waters X-BridgeC18 (186003021) 50 × 2.1 mm column with 3.5 micron particle packing at a flow rate of 1 ml/min and with the temperature maintained at 50°C. Solvent A was water with 0.1% formic acid. Solvent B was acetonitrile with 0.07% formic acid. The data for 3 replicates are expressed as percent of parent remaining.

Question: Which “Metabolism Ranking” value (1 μM) does the source give for `Cc1ncc2n1-c1ccc(Cl)cc1C(c1ccccc1F)=NC2` [Midazolam, reference compound] here?
Answer: The value was “High (<45=high)”.

Question: What about the remaining at 0.5 h, 1 μM (male, Sprague-Dawley, pooled microsomes from non-induced rats, percent of parent remaining) of the same molecule?
Answer: Its remaining at 0.5 h, 1 μM is 0 to 3%.
